Measured values taken from patent US12570612B2, “Substituted nitrogen heterocyclic compound and anesthetic effect thereof” (priority 2019, dated 2026).
Like-named read-outs stand apart in the source and are kept apart here.

Columns and labels:
Sprague-Dawley rats [1] = type: in vivo; details: tail vein
Sprague-Dawley rats [2] = test: animal or person; type: in vivo; details: rats; for ED50: LORR, up and down method, tail vein, class symbols
Excerpt: (§1) Evaluating indicator: The end point of anesthesia: LORR was used as the end point of anesthesia; General anesthesia effect: the disappearance of forepaw righting reflex in rats lasting for 30 seconds is taken as the index of general anesthesia effect; Anesthesia recovery index: the recovery of rat forepaw righting reflex was used as the index of anesthesia recovery.

Sprague-Dawley rats [3] = test: Pharmacological effect and adverse reactions under the equivalent dose (2ED50), Group C compounds; type: in vivo; details: for Righting reflex duration / Sedation duration / Onset time: 2ED50, tail vein, rats, n=8; for Adverse reaction: Convulsions / Adverse reaction: Cough, broken-winded / Adverse reaction: Euphoria / Adverse reaction: Red urine / Adverse reaction: Slower breathing, Tetany convulsion / Adverse reaction: Systemic stiffness, Convulsions, Opisthotonus / Adverse reaction: Tongue stretching / Adverse reaction: Tremor / Adverse reaction: the four limbs rigidity: equivalent dose (2ED50), number of rats of n = 8
Excerpt: (§2) Evaluation index: onset time: from the completion of drug injection to the disappearance of forepaw righting reflex in rats; Duration of anesthesia: the time from the disappearance of rat forepaw righting reflex to the recovery of rat forepaw righting reflex; Recovery time of anesthesia: the time from the […] to complete recovery;

SD rats = details: for After the infusion is stopped: Righting reflex recovery time / Recovery time after stopping infusion: after 1 hour continuous infusion at 2 times the MIR; for After the infusion is stopped: Righting reflex recovery time / Recovery time after stopping infusion / Sedation onset time: SD rats; for Types and incidence of adverse reactions: Red urine / Types and incidence of adverse reactions: Tongue stretching / Types and incidence of adverse reactions: Tremor: continuous infusion 2 x MIR 1 hour, rats affected/rats; for Sedation onset time: continuous tail vein infusion at 2 times the MIR
Protocol: Experimental Methods: Adult male SD rats with body weight ranging from 250 g to 350 g were selected for continuous infusion test.
Evaluation indexes: the time from the beginning of continuous infusion to the […] of sedation in rats; the time from the cessation of infusion to the restoration of the forepaw turning reflex after 1 hour of continuous infusion; the time from the cessation of infusion to the complete restoration of rats after 1 hour of continuous infusion.

Sprague-Dawley rats [4] = type: in vivo; details: tail vein; remark: listed apart in the source
Sprague-Dawley rats [5] = test: Pharmacological effect and adverse reactions under the equivalent dose (2ED50), Group D compounds; type: in vivo; details: for Righting reflex duration / Sedation duration / Onset time: 2ED50, tail vein, rats, n=8; for Onset time: unit min; for Adverse reaction: Convulsions / Adverse reaction: Cough, broken-winded / Adverse reaction: Euphoria / Adverse reaction: Four limbs rigidity / Adverse reaction: Red urine / Adverse reaction: Slower breathing, Tetany convulsion / Adverse reaction: Systemic stiffness, Convulsions, Opisthotonus / Adverse reaction: Tongue stretching / Adverse reaction: Tremor: equivalent dose (2 × ED50), number of rats of n = 8
Excerpt: as §2

Sprague-Dawley rats [6] = test: animal or person; type: in vivo; details: rats; for ED50: Rattus norvegicus, LORR, up and down method, tail vein, class symbols, read-out: ED50
Excerpt: as §1, with “the disappearance of forepaw righting reflex (lorr)” for “LORR”

[7] = Rattus norvegicus, read-out: ED50

Compound	Minimal lethal dose (Sprague-Dawley rats [1]) [mg/kg]	ED50 (Sprague-Dawley rats [2]; [7]) [mg/kg]	Approximate therapeutic index (Sprague-Dawley rats [2])	Righting reflex duration (Sprague-Dawley rats [3]) [min]	Sedation duration (Sprague-Dawley rats [3]) [min]	Onset time (Sprague-Dawley rats [3]; unit s) [s]	Adverse reaction: Convulsions (Sprague-Dawley rats [3])	Adverse reaction: Cough, broken-winded (Sprague-Dawley rats [3])	Adverse reaction: Euphoria (Sprague-Dawley rats [3])	Adverse reaction: Red urine (Sprague-Dawley rats [3])	Adverse reaction: Slower breathing, Tetany convulsion (Sprague-Dawley rats [3])	Adverse reaction: Systemic stiffness, Convulsions, Opisthotonus (Sprague-Dawley rats [3])	Adverse reaction: Tongue stretching (Sprague-Dawley rats [3])	Adverse reaction: Tremor (Sprague-Dawley rats [3])	Adverse reaction: the four limbs rigidity (Sprague-Dawley rats [3])	further results
CCOCC(=O)c1cncn1[C@H](C)c1ccccc1 [Compound C34]	>12.8	2 to 10	>2.6	2.26 ± 0.81	4.89 ± 0.98	<30	0	0	1	8	0	6	1	0	0	After the infusion is stopped: Righting reflex recovery time (SD rats): 15 to 20 min; Recovery time after stopping infusion (SD rats): 22 to 28 min; Types and incidence of adverse reactions: Red urine (SD rats): 6/6; Types and incidence of adverse reactions: Tongue stretching (SD rats): Tongue stretching(4/6); Types and incidence of adverse reactions: Tremor (SD rats): 2/6; Sedation onset time (SD rats): <5 min
C[C@H](c1ccccc1)n1cncc1C(=O)COCCC1CCC1 [Compound C40]	>8.3	0.5 to 1	>13.8	3.76 ± 1.75	10.48 ± 2.58	<30	1	0	0	8	1	1	0	0	0	After the infusion is stopped: Righting reflex recovery time (SD rats): 16 to 20 min; Recovery time after stopping infusion (SD rats): 27 to 35 min; Types and incidence of adverse reactions: Red urine (SD rats): 6/6; Types and incidence of adverse reactions: Tremor (SD rats): 2/6; Sedation onset time (SD rats): <5 min
C[C@H](c1ccccc1)n1cnc(F)c1C(=O)COCC1CCC1 [Compound C70]	>6.4	–	>18.2	1.35 ± 0.61	5.30 ± 1.14	<30	0	0	4	8	0	0	0	0	6	ED50 (Sprague-Dawley rats [2]): + (+ indicates that the measured ED50 is in the range of 0.04-0.50 mg/kg (including 0.04 and 0.50 mg/kg))
COCC(=O)c1c(F)ncn1[C@H](C)c1ccccc1 [Compound C71]	>6.6	–	>8.0	2.00 ± 0.81	5.11 ± 1.64	<30	2	0	0	8	0	0	0	1	1	ED50 (Sprague-Dawley rats [2]): ++ (++ means that the measured ED50 is in the range of 0.50-1.00 mg/kg (excluding 0.50 mg/kg, including 1.00 mg/kg))
CCOCC(=O)c1c(F)ncn1[C@H](C)c1ccccc1 [Compound C72]	>8.9	0.04 to 0.5	>27.7	1.29 ± 0.64	5.70 ± 1.51	–	0	0	0	8	0	0	0	0	0	Onset time (Sprague-Dawley rats [3]; unit min): <60 s
C#CCOCC(=O)c1c(F)ncn1[C@H](C)c1ccccc1 [Compound C73]	>4.0	0.04 to 0.5	>23.4	1.24 ± 0.56	6.76 ± 1.49	<30	0	0	0	8	0	2	0	0	1	–
C[C@H](c1ccccc1)n1cnc(F)c1C(=O)COCCC1CCC1 [Compound C74]	>6.0	0.04 to 0.5	>42.9	1.37 ± 0.63	5.68 ± 1.10	–	0	0	0	8	0	0	0	1	0	Onset time (Sprague-Dawley rats [3]; unit min): <60 s; After the infusion is stopped: Righting reflex recovery time (SD rats): 13 to 18 min; Recovery time after stopping infusion (SD rats): 18 to 24 min; Types and incidence of adverse reactions: Red urine (SD rats): 6/6; Types and incidence of adverse reactions: Tongue stretching (SD rats): Tongue stretching(4/6); Types and incidence of adverse reactions: Tremor (SD rats): 4/6; Sedation onset time (SD rats): <5 min
C[C@H](c1ccccc1)n1cnc(F)c1C(=O)COCC1CC1 [Compound C76]	>15.6	–	>21.9	1.72 ± 0.61	4.32 ± 0.96	<30	0	0	0	8	0	0	0	1	1	ED50 (Sprague-Dawley rats [2]): ++ (++ means that the measured ED50 is in the range of 0.50-1.00 mg/kg (excluding 0.50 mg/kg, including 1.00 mg/kg))
CCC(CC)OCC(=O)c1c(F)ncn1[C@H](C)c1ccccc1 [Compound C78]	>11.5	0.5 to 1	>14.3	2.59 ± 0.99	7.30 ± 1.85	<30	0	0	0	8	0	0	1	0	1	–
CCSC(OC)(OC)C(=O)c1ccnn1[C@H](C)c1ccccc1 [Compound D2]	–	–	–	–	–	–	–	–	–	–	–	–	–	–	–	Minimal lethal dose (Sprague-Dawley rats [4]): >10.5 mg/kg; Righting reflex duration (Sprague-Dawley rats [5]): 5.82 ± 1.87 min; Sedation duration (Sprague-Dawley rats [5]): 13.71 ± 3.89 min; Onset time (Sprague-Dawley rats [5]): <1 min; Adverse reaction: Convulsions (Sprague-Dawley rats [5]): 0; Adverse reaction: Cough, broken-winded (Sprague-Dawley rats [5]): 2; Adverse reaction: Euphoria (Sprague-Dawley rats [5]): 3; Adverse reaction: Four limbs rigidity (Sprague-Dawley rats [5]): 0; Adverse reaction: Red urine (Sprague-Dawley rats [5]): 8; Adverse reaction: Slower breathing, Tetany convulsion (Sprague-Dawley rats [5]): 1; Adverse reaction: Systemic stiffness, Convulsions, Opisthotonus (Sprague-Dawley rats [5]): 0; Adverse reaction: Tongue stretching (Sprague-Dawley rats [5]): 2; Adverse reaction: Tremor (Sprague-Dawley rats [5]): 8; ED50 (Sprague-Dawley rats [6]): 2 to 6 mg/kg; Approximate therapeutic index (Sprague-Dawley rats [6]): >6.6
COC(OC)(OC(C)C)C(=O)c1ccnn1[C@H](C)c1ccccc1 [Compound D4]	–	–	–	–	–	–	–	–	–	–	–	–	–	–	–	Minimal lethal dose (Sprague-Dawley rats [4]): >10.1 mg/kg; Righting reflex duration (Sprague-Dawley rats [5]): 0.98 ± 0.35 min; Sedation duration (Sprague-Dawley rats [5]): 7.28 ± 1.56 min; Onset time (Sprague-Dawley rats [5]): <1 min; Adverse reaction: Convulsions (Sprague-Dawley rats [5]): 0; Adverse reaction: Cough, broken-winded (Sprague-Dawley rats [5]): 0; Adverse reaction: Euphoria (Sprague-Dawley rats [5]): 0; Adverse reaction: Four limbs rigidity (Sprague-Dawley rats [5]): 0; Adverse reaction: Red urine (Sprague-Dawley rats [5]): 8; Adverse reaction: Slower breathing, Tetany convulsion (Sprague-Dawley rats [5]): 0; Adverse reaction: Systemic stiffness, Convulsions, Opisthotonus (Sprague-Dawley rats [5]): 0; Adverse reaction: Tongue stretching (Sprague-Dawley rats [5]): 0; Adverse reaction: Tremor (Sprague-Dawley rats [5]): 0; ED50 (Sprague-Dawley rats [6]): 2 to 6 mg/kg; Approximate therapeutic index (Sprague-Dawley rats [6]): >5.0
COC(=O)C(=O)c1ccnn1[C@H](C)c1ccccc1 [Compound D11]	–	–	–	–	–	–	–	–	–	–	–	–	–	–	–	Minimal lethal dose (Sprague-Dawley rats [4]): >30.2 mg/kg; ED50 (Sprague-Dawley rats [6]): > 6 mg/kg; Approximate therapeutic index (Sprague-Dawley rats [6]): >4.6
